EC50 and IC50 data for 2 compounds are collected here from BindingDB's records for doi:10.1016/0960-894X(95)00417-R (1995).

One may read the pEC50 as the negative decadic logarithm of the EC50, by convention in mol/L. In general, pIC50 refers to −log10 of the IC50, conventionally taken in molar units. High values mean a low IC50, low ones a high IC50.

A short description of test [1]: Compound was tested for the inhibition of forskolin-stimulated adenylate cyclase at 5-hydroxytryptamine 1A receptor in guinea pig.
Test [2] is described as follows: Tested in vitro for receptor binding affinity to 5-hydroxytryptamine 1D receptor in bovine caudate using [3H]5-HT radioligand.

pEC50, pIC50: −log10 of the molar value.

In the case of `CN1CCC[C@@H]1Cc1c[nH]c2ccc(-n3cnc4cc(C#N)ccc43)cc12` [CP-161242], the pEC50 in test [1] was 7.59. In test [2], this compound gave a pIC50 of 8.89.
Consider `CN(C)CCc1c[nH]c2ccc(-n3cnc4cccnc43)cc12` [[2-(5-Imidazo[4,5-b]pyridin-3-yl-1H-indol-3-yl)-ethyl]-dimethyl-amine], for which the pEC50 in test [1] was 6.34. Also, the pIC50 in test [2] was 7.96.
